# From patent US10744150B2, “Cyclic dinucleotides as anticancer agents” (BRISTOL-MYERS SQUIBB COMPANY, priority 2017, dated 2020)
# Where two headings read alike, the source gives them in different places.
# Columns and labels:
# [1] = target: T1, STING WT: His-TVMV-S-hSTING(155-341)-H232R (Homo sapiens, UniProt Q86WV6, H232R); experiment: STING HTRF binding assay (time resolved FRET competition), STING WT; details: 20 nM His-tagged STING cytoplasmic domain, 200 nM fluorescein-labeled cGAMP analog probe, one hour; read-out: HTRF Binding Assays IC50 STING WT
# T1 construct: His-TVMV-S-hSTING(155-341)-H232R
# T1 sequence (Q86WV6 with tags, fused parts or gaps H232R): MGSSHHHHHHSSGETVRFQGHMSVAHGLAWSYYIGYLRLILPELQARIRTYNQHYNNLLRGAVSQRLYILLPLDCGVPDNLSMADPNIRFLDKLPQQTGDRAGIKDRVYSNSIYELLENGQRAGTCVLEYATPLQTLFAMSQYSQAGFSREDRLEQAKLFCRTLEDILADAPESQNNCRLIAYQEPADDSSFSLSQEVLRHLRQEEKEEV
# Method: (§1) A time resolved FRET-based competition binding assay was used to assess test article binding to STING WT and STING AQ. His-tagged STING cytoplasmic domain (WT or AQ) at a concentration of 20 nM was incubated with 2.5 nM Tb-labeled anti-His antibody, test compound, and fluorescein-labeled cGAMP analog probe (BioLog cat. no. C195) at a concentration of 200 nM (STING WT) or 40 nM (STING AQ) in PBS containing 0.005% Tween-20 and 0.1% BSA for one hour. Fluorescence at 495 nm and 520 nm was measured using an EnVision microplate reader to quantify FRET between Tb-labeled anti-His antibody and fluorescein-labeled probe. Background was defined as the signal obtained in the absence of STING protein, and background subtracted FRET ratios were normalized to the maximum signal obtained in the absence of test compound. These values were converted to a percent inhibition. Percent inhibition was determined for test compounds at 11 concentrations. The IC50, defined as the concentration of competing test compound needed to reduce specific binding of the probe by 50%, was calculated using the 4 parameter logistic equation to fit the data
# IRF3 = experiment: STING THP1 reporter assay, IRF pathway (secreted luciferase Lucia, QUANTI-Luc); type: cell-based; details: THP1-Dual cells, 10% human plasma, 100% activation = 100 μM cGAMP, luciferase readout, read-out: THP1 Reporter Assays EC50 IRF3
# Text: (§2) THP1-Dual™ cells were derived from the human THP-1 monocyte cell line by stable integration of two inducible reporter constructs. To this end, THP1-Dual™ cells allow the simultaneous study of the NF-κB pathway, by monitoring the activity of SEAP, and the IRF pathway by assessing the activity of a secreted luciferase (Lucia). Both reporter proteins are readily measurable in the cell culture supernatant when using QUANTI-Blue™, a SEAP detection reagent, and QUANTI-Luc™, a luciferase detection reagent.
# (§3) THP1-Dual™ cells induce the activation of NF-κB in response to STING agonists. They also trigger the IRF pathway upon stimulation with STING agonists, such as cGAMP. Here, the THP-1-Dual cells were used to assess STING binders for function on the cellular level.
# (§4) Serial dilutions of compounds in DMSO were added to low volume 384 well plates at 100 nl/well using an ECHO acoustic dispenser (Labcyte, model 550) to achieve final starting concentration of 100 μM in cell suspension. THP-1 Dual™ STING reporter cells (Invivogen, Dual cells cat # THPD-nfis) were added to the plates with compounds at 15,000 cells in 10 μL per well in RPMI media (Gibco, cat #11875) containing 10% human plasma in a low volume 384-well black wall clear bottom tissue culture plate (Corning, cat #3542) for SEAP assay and low volume solid white plate (Corning, cat #3826) for luciferase assay. One column of the plate was reserved for treatment with cGAMP at 100 μM for 100% activation calculation and one column for no treatment (DMSO only) for baseline activation. Plates were then incubated in 37° C. incubator at 5% CO2 for 20 hours.
# (§5) In the SEAP assay, 5 μl of 2× QuantiBlue (Invivogen, cat # Rep-qb2) is added to 384 well black plates seeded with THP1 cells and incubated at 37° C. for 2 hours. Plates were read on the Envision (Perkin Elmer) at 620 nm wavelength (OD620). In the luciferase assay, 5 μl of Quantiluc (Invivogen, Rep-qlc2) is added to white 384 well plates seeded with THP1 cells and read at 5 minutes on the Envision (Perkin Elmer) using a luminescence protocol (RLU). For both cell lines, 100% activation was determined by value (RLU) of THP-1 Dual STING cells stimulated with 100 μM cGAMP (Invivogen, cat # TLRL-NACGA23-5).
# NFkB = experiment: STING THP1 reporter assay, NF-κB pathway (SEAP, QUANTI-Blue); type: cell-based; details: THP1-Dual cells, 10% human plasma, 100% activation = 100 μM cGAMP
# Text: as §2, §3, §4, §5
# [2] = target: T2, STING AQ: His-TVMV-S-hSTING(155-341)-G230A-R293Q (Homo sapiens, UniProt Q86WV6, G230A/H232R/R293Q); experiment: STING HTRF binding assay (time resolved FRET competition), STING AQ; details: 20 nM His-tagged STING cytoplasmic domain, 40 nM fluorescein-labeled cGAMP analog probe, one hour; read-out: HTRF Binding Assays IC50 STING AQ
# T2 construct: His-TVMV-S-hSTING(155-341)-G230A-R293Q
# T2 sequence (Q86WV6 with tags, fused parts or gaps G230A/H232R/R293Q): as the sequence (Q86WV6 with tags, fused parts or gaps H232R) above, with G99A, R162Q counted along it
# Method: as §1
# [3] = 20 hours, SEAP readout OD620, read-out: THP1 Reporter Assays EC50 NFkB
# [4] = Homo sapiens, THP-1, 20 h, SEAP readout OD620, read-out: THP1 Reporter Assays EC50 NFkB
Structure (SMILES),IC50 [1] [µM],EC50 (IRF3; 20 hours) [µM],EC50 (NFkB; [3]) [µM],IC50 [2] [µM],"EC50 (IRF3; Homo sapiens, THP-1, 20 h) [µM]",EC50 (NFkB; [4]) [µM]
"Nc1ncnc2c1ncn2[C@@H]1C[C@@H]2COP(O)(=S)O[C@H]3[C@H](F)[C@H](n4ccc5c(Cl)ncnc54)O[C@@H]3COP(O)(=S)OC[C@H]21 (single isomer, unassigned) [Example 7-3]",> 100,> 100,> 100,61.1,–,–
"Nc1ncnc2c1ncn2[C@@H]1O[C@@H]2COP(O)(=S)OC[C@@H]3[C@@H](COP(O)(=S)O[C@H]2[C@H]1F)C[C@H]3n1cnc2c(=O)[nH]cnc21 (single isomer, unassigned) [Example 5-3]",2.7,> 100,> 100,0.04,–,–
"O=c1[nH]c2nccn2c2c1ncn2[C@@H]1O[C@@H]2COP(=O)(S)OC[C@@H]3[C@@H](COP(=O)(S)O[C@@H]1[C@@H]2O)C[C@H]3n1cnc2c(O)ncnc21 (single isomer, unassigned) [Example 14-2]",25.5,> 100,> 100,5.1,–,–
"NC(=O)c1cccc2c1nnn2[C@@H]1C[C@@H]2COP(O)(=S)O[C@H]3[C@@H](F)[C@H](n4cnc5c(N)ncnc54)O[C@@H]3COP(O)(=S)OC[C@H]21 (single isomer, unassigned) [Example 13-2]",> 100,> 100,> 100,3,–,–
"Nc1ncnc2c1ncn2[C@@H]1C[C@@H]2COP(O)(=S)O[C@H]3[C@H](F)[C@H](n4cnc5c(N)ncnc54)O[C@@H]3COP(O)(=S)OC[C@H]21 (single isomer, unassigned) [Example 17-2]",> 100,> 100,> 100,1.9,–,–
"Nc1ncnc2c1ncn2[C@@H]1O[C@@H]2COP(O)(=S)OC[C@@H]3[C@@H](COP(O)(=S)O[C@H]2[C@H]1F)C[C@H]3n1cnc2c(O)nc3nccn3c21 (single isomer, unassigned) [Example 3-1]",15,> 100,> 100,0.43,–,–
"Nc1ncnc2c1ncn2[C@@H]1C[C@@H]2COP(=O)(S)O[C@H]3[C@@H](F)[C@H](n4cnc5c(N)ncnc54)O[C@@H]3COP(=O)(S)OC[C@H]21 (single isomer, unassigned) [Example 1-2]",0.09,3,6,0.01,–,–
"Nc1ncnc2c1ncn2[C@@H]1C[C@@H]2COP(O)(=S)O[C@@H]3[C@H](O)[C@@H](COP(O)(=S)OC[C@H]21)O[C@H]3n1cnc2c(O)nc3nccn3c21 (single isomer, unassigned) [Example 15-2]",26.9,> 100,> 100,1.8,–,–
"NC(=O)c1cccc2c1nnn2[C@@H]1O[C@@H]2COP(O)(=S)OC[C@@H]3[C@@H](COP(O)(=S)O[C@H]2[C@H]1F)C[C@H]3n1cnc2c(N)ncnc21 (single isomer, unassigned) [Example 12-1]",52.8,–,–,19.9,> 100,> 100
"Nc1ncnc2c1ccn2[C@@H]1O[C@@H]2COP(O)(=S)OC[C@@H]3[C@@H](COP(O)(=S)O[C@H]2[C@@H]1F)C[C@H]3n1cnc2c(N)ncnc21 (single isomer, unassigned) [Example 8-2]",33,> 100,97,> 100,–,–
"Nc1ncnc2c1ncn2[C@@H]1C[C@@H]2COP(=O)(S)O[C@H]3[C@@H](F)[C@H](n4cnc5c(N)ncnc54)O[C@@H]3COP(=O)(S)OC[C@H]21 (single isomer, unassigned) [Example 1-1]",1.6,> 100,> 100,0.06,–,–
"Nc1ncnc2c1ncn2[C@@H]1C[C@@H]2COP(O)(=S)O[C@H]3[C@@H](F)[C@H](n4cnc5c(=O)[nH]c6nccn6c54)O[C@@H]3COP(O)(=S)OC[C@H]21 (single isomer, unassigned) [Example 9-2]",4.3,> 100,> 100,0.92,–,–
"Nc1nc2c(ncn2[C@@H]2C[C@@H]3COP(O)(=S)O[C@H]4[C@@H](F)[C@H](n5cnc6c(N)ncnc65)O[C@@H]4COP(O)(=S)OC[C@H]32)c(=O)[nH]1 (single isomer, unassigned) [Example 18-2]",0.15,> 100,> 100,0.02,–,–
"Nc1ncnc2c1ncn2[C@@H]1O[C@@H]2COP(O)(=S)OC[C@@H]3[C@@H](COP(O)(=S)O[C@H]2[C@H]1F)C[C@H]3n1cnc2c(=O)[nH]cnc21 (single isomer, unassigned) [Example 5-1]",5.7,> 100,–,0.1,–,> 100
"Nc1ncnc2c1ncn2[C@@H]1C[C@@H]2COP(O)(=S)O[C@H]3[C@@H](O)[C@H](n4cnc5c(O)ncnc54)O[C@@H]3COP(O)(=S)OC[C@H]21 (stereo partly drawn) [Example 16, (1S,6S,8R,9R,15R,17R,18R)-8-(6-amino-9H-purin-9-yl)-3,12,18-trihydroxy-17-(6-hydroxy-9H-purin-9-yl)-2,4,11,13,16-pentaoxa-3λ^5,12λ^5-diphosphatricyclo[13.3.0.0^6,9]octadecane-3,12-dithione]",17.9,–,–,0.23,> 100,31
"NC(=O)c1cccc2c1nnn2[C@@H]1O[C@@H]2COP(O)(=S)OC[C@@H]3[C@@H](COP(O)(=S)O[C@@H]1[C@@H]2F)C[C@H]3n1cnc2c(N)ncnc21 (single isomer, unassigned) [Example 11-1]",20.5,–,–,3.1,> 100,> 100
"Nc1ncnc2c1ncn2[C@@H]1C[C@@H]2COP(O)(=S)O[C@H]3[C@H](F)[C@H](n4ccc5c(Cl)ncnc54)O[C@@H]3COP(O)(=S)OC[C@H]21 (single isomer, unassigned) [Example 7-4]",49.1,> 100,> 100,6.3,–,–
"Nc1ncnc2c1ncn2[C@@H]1C[C@@H]2COP(O)(=S)O[C@@H]3[C@H](O)[C@@H](COP(O)(=S)OC[C@H]21)O[C@H]3n1cnc2c(N)ncnc21 (single isomer, unassigned) [Example 4-1]",> 100,–,–,2.8,> 100,> 100
